These results are taken from patent US8299085B2, “Quinazoline derivatives” (Novartis AG, priority 2004, dated 2012).

The term melting point denotes the temperature, or range, at which the solid turns liquid.

Molecules are shown by their SMILES.

Tested on in one series: not given
Test: not given
Details: not given
Turning to `CS(=O)(=O)Nn1c(=O)[nH]c2cc([N+](=O)[O-])c(-n3cnc(CO)c3)cc2c1=O` [Example 2, N-[6-(4-Hydroxymethyl-imidazol-1-yl)-7-nitro-2,4-dioxo-1,4-dihydro-2H-quinazolin-3-yl]-methanesulfonamide], the melting point is more than 300 °C.
Consider `CS(=O)(=O)Nn1c(=O)[nH]c2cc([N+](=O)[O-])c(NCC(O)c3cccs3)cc2c1=O` (stereo not shown) [Example 6, N-[6-(2-Hydroxy-2-thiophen-2-yl-ethylamino)-7-nitro-2,4-dioxo-1,4-dihydro-2H-quinazolin-3-yl]-methanesulfonamide], for which the melting point is 110 °C (dec.).
The same measure, in the same setting: next, `COc1cc2c(=O)n(NS(C)(=O)=O)c(=O)[nH]c2cc1[N+](=O)[O-]` [Example 15, N-(6-Methoxy-7-nitro-2,4-dioxo-1,4-dihydro-2H-quinazolin-3-yl)-methanesulfonamide]: more than 280 °C; `CCS(=O)(=O)Nn1c(=O)[nH]c2cc(C(F)(F)F)c(-n3cnnc3)cc2c1=O` [Example 70, Ethanesulfonic acid (2,4-dioxo-6-[1,2,4]triazol-4-yl-7-trifluoromethyl-1,4-dihydro-2H-quinazolin-3-yl)-amide]: 185 to 195 °C.
The same measure, in the same setting: the value for `CCOC(=O)c1ncn(-c2cc3c(=O)n(NS(C)(=O)=O)c(=O)[nH]c3cc2C(F)(F)F)n1` [Example 71, 1-(3-Methanesulfonylamino-2,4-dioxo-7-trifluoromethyl-1,2,3,4-tetrahydro-quinazolin-6-yl)-1H-[1,2,4]triazole-3-carboxylic acid ethyl ester] was 267 to 270 °C; that for `CNC(=O)c1ncn(-c2cc3c(=O)n(NS(C)(=O)=O)c(=O)[nH]c3cc2C(F)(F)F)n1` [Example 72, 1-(3-Methanesulfonylamino-2,4-dioxo-7-trifluoromethyl-1,2,3,4-tetrahydro-quinazolin-6-yl)-1H-[1,2,4]triazole-3-carboxylic acid methylamide] was 257 to 260 °C; that for `CS(=O)(=O)Nn1c(=O)[nH]c2cc(C(F)(F)F)c(-n3ccnc3)cc2c1=O` [Example 73, N-(6-Imidazol-1-yl-2,4-dioxo-7-trifluoromethyl-1,4-dihydro-2H-quinazolin-3-yl)-methanesulfonamide] was 285 to 301 °C (dec.).
The same measure, in the same setting: next, `CS(=O)(=O)Nn1c(=O)[nH]c2cc(C(F)(F)F)c(N3CCSCC3)cc2c1=O` [Example 74, N-(2,4-Dioxo-6-thiomorpholin-4-yl-7-trifluoromethyl-1,4-dihydro-2H-quinazolin-3-yl)-methanesulfonamide]: 245 to 260 °C (dec.); `CS(=O)(=O)Nn1c(=O)[nH]c2cc(C(F)(F)F)c(N3CCC(F)(F)CC3)cc2c1=O` [Example 76, N-[6-(4,4-Difluoro-piperidin-1-yl)-2,4-dioxo-7-trifluoromethyl-1,4-dihydro-2H-quinazolin-3-yl]-methanesulfonamide]: 249 to 261 °C (dec.).
In turn, `CS(=O)(=O)Nn1c(=O)[nH]c2cc(C(F)(F)F)c(N3CCC4(CC3)OCCO4)cc2c1=O` [Example 77, N-[6-(1,4-Dioxa-8-aza-spiro[4.5]dec-8-yl)-2,4-dioxo-7-trifluoromethyl-1,4-dihydro-2H-quinazolin-3-yl]-methanesulfonamide] gave a melting point of 253 to 262 °C.
For `CS(=O)(=O)Nn1c(=O)[nH]c2cc(C(F)(F)F)c(N3CCC(=O)CC3)cc2c1=O` [Example 78, N-[2,4-Dioxo-6-(4-oxo-piperidin-1-yl)-7-trifluoromethyl-1,4-dihydro-2H-quinazolin-3-yl]-methanesulfonamide], the melting point is 238 to 242 °C.
The same measure, in the same setting: next, `CS(=O)(=O)Nn1c(=O)[nH]c2cc(C(F)(F)F)c(N3CCC3)cc2c1=O` [Example 79, N-(6-Azetidin-1-yl-2,4-dioxo-7-trifluoromethyl-1,4-dihydro-2H-quinazolin-3-yl)-methanesulfonamide]: 266 to 283 °C.
Regarding `CS(=O)(=O)Nn1c(=O)[nH]c2cc(C(F)(F)F)c(Oc3cccnc3)cc2c1=O` [Example 80, N-[2,4-Dioxo-6-(pyridin-3-yloxy)-7-trifluoromethyl-1,4-dihydro-2H-quinazolin-3-yl]-methanesulfonamide], the melting point lay in the range of 194 to 196 °C.
The same measure, in the same setting: next, `CN(C)c1cc2c(=O)n(NS(C)(=O)=O)c(=O)[nH]c2cc1C(F)(F)F` [Example 81, N-(6-Dimethylamino-2,4-dioxo-7-trifluoromethyl-1,4-dihydro-2H-quinazolin-3-yl)-methanesulfonamide]: 254 to 272 °C; `CS(=O)(=O)Nn1c(=O)[nH]c2cc(C(F)(F)F)c(NCCO)cc2c1=O` [Example 82, N-[6-(2-Hydroxy-ethylamino)-2,4-dioxo-7-trifluoromethyl-1,4-dihydro-2H-quinazolin-3-yl]-methanesulfonamide]: 240 to 246 °C.
With `COc1ccc(-c2cn(-c3cc4c(=O)n(NS(C)(=O)=O)c(=O)[nH]c4cc3C(F)(F)F)cn2)cc1` [Example 84, N-{6-[4-(4-Methoxy-phenyl)-imidazol-1-yl]-2,4-dioxo-7-trifluoromethyl-1,4-dihydro-2H-quinazolin-3-yl}-methanesulfonamide], the melting point was 293 to 294 °C.
`COCc1ccc(-c2cn(-c3cc4c(=O)n(NS(C)(=O)=O)c(=O)[nH]c4cc3C(F)(F)F)cn2)cc1` [Example 85, N-{6-[4-(4-Methoxymethyl-phenyl)-imidazol-1-yl]-2,4-dioxo-7-trifluoromethyl-1,4-dihydro-2H-quinazolin-3-yl}-methanesulfonamide]: the melting point lay in the range of 252 to 257 °C.
Still for that read-out and setting: next, `COC(=O)c1cn(-c2cc3c(=O)n(NS(C)(=O)=O)c(=O)[nH]c3cc2C(F)(F)F)cn1` [Example 88, 1-(3-methanesulfonylamino-2,4-dioxo-7-trifluoromethyl-1,2,3,4-tetrahydro-quinazolin-6-yl)-1H-imidazole-4-carboxylic acid methyl ester]: 287 to 288 °C; `CN(C)C(=O)c1cn(-c2cc3c(=O)n(NS(C)(=O)=O)c(=O)[nH]c3cc2C(F)(F)F)cn1` [Example 90, 1-(3-Methanesulfonylamino-2,4-dioxo-7-trifluoromethyl-1,2,3,4-tetrahydro-quinazolin-6-yl)-1H-imidazole-4-carboxylic acid dimethylamide]: 284 to 286 °C; `CNC(=O)c1cn(-c2cc3c(=O)n(NS(C)(=O)=O)c(=O)[nH]c3cc2C(F)(F)F)cn1` [Example 91, 1-(3-Methanesulfonylamino-2,4-dioxo-7-trifluoromethyl-1,2,3,4-tetrahydro-quinazolin-6-yl)-1H-imidazole-4-carboxylic acid methylamide]: 292 to 295 °C.
In the case of `CS(=O)(=O)Nn1c(=O)[nH]c2cc(C(F)(F)F)c(-n3cnc(CO)c3)cc2c1=O` [Example 93, N-[6-(4-Hydroxymethyl-imidazol-1-yl)-2,4-dioxo-7-trifluoromethyl-1,4-dihydro-2H-quinazolin-3-yl]-methanesulfonamide], the melting point lay in the range of 225 to 230 °C.
Compound `CS(=O)(=O)Nn1c(=O)[nH]c2cc(C(F)(F)F)c(-n3cnc(Br)c3)cc2c1=O` [Example 95, N-[6-(4-Bromo-imidazol-1-yl)-2,4-dioxo-7-trifluoromethyl-1,4-dihydro-2H-quinazolin-3-yl]-methanesulfonamide] showed a melting point of 229 to 233 °C.
In turn, `CS(=O)(=O)Nn1c(=O)[nH]c2cc(C(F)(F)F)c(-n3cnc(C(F)(F)F)c3)cc2c1=O` [Example 96, N-[6-(4-Trifluoromethyl-imidazol-1-yl)-2,4-dioxo-7-trifluoromethyl-1,4-dihydro-2H-quinazolin-3-yl]-methanesulfonamide] came in with a melting point of 144 to 147 °C.
Still for that read-out and setting: the value for `COC(=O)Nc1cc2c(=O)n(NS(C)(=O)=O)c(=O)[nH]c2cc1C(F)(F)F` [Example 101, (3-Methanesulfonylamino-2,4-dioxo-7-trifluoromethyl-1,2,3,4-tetrahydro-quinazolin-6-yl)carbamic acid methyl ester] was 232.4 to 240.2 °C.

The next series relates to patients with diabetic neuropathy. The series is described as follows: Clinical study, chronic pain in patients with diabetic neuropathy. To be noted: 2400 mg/day, Maintenance and Follow-up Periods, statistically significant. It counts as in vivo, human. As to the method: Patients are randomized to receive 2400 mg/day of the compound or placebo in a 1:1 ratio.
The study consists of a Pre-randomization Phase (1 week) and a Double-blind Phase (5 weeks). The double-blind Phase consists of three periods: a one week Titration Period, a three-week Maintenance Period and a one-week Follow-up Period.
During the 1-week Pre-randomization Phase, the eligibility of the patients is evaluated. Patients meeting all inclusion/exclusion criteria are randomized to either the compound or placebo in the Double-blind Phase. During the 1-week Titration Period, study medication is up-titrated from 800 mg/day (given b.i.d.) to 2400 mg/day (given b.i.d.). Patients who complete the 1-week Titration Period then enter the 3-week Maintenance Period. Patients who complete the 3-week Maintenance period or prematurely discontinue double-blind treatment then enter the 1-week Follow-up Period. Study medication is completely withdrawn on entry into the Follow-up Period. During the Double-blind Phase, serial efficacy and safety assessments are obtained. […]
The SF-MPQ total pain score at the end of the Maintenance Period is analyzed using an analysis of covariance model adjusting for the effect of treatment on post-treatment scores by using the baseline SF-MPQ total pain score as a covariate. Average weekly pain severity is analyzed using an analysis of covariance model with repeated measures using the treatment week and the mean pain severity rating during the Pre-randomization Phase as covariates. Usage of rescue medication during the Double-blind Phase is analyzed using the Cochran-Mantel-Haenszel test controlling for center. The mean pain severity rating during the Follow-up Period (rebound pain) is analyzed using an analysis of covariance model adjusting for the effect of treatment on the mean pain severity rating of the Follow-up Period with the mean pain severity rating during the Prerandomization Phase as a covariate.
With `CS(=O)(=O)Nn1c(=O)[nH]c2cc(C(F)(F)F)c(N3CCOCC3)cc2c1=O` [Example 68, N-(6-Morpholin-4-yl-2,4-dioxo-7-trifluoromethyl-1,4-dihydro-2H-quinazolin-3-yl) -methanesulfonamide], the “pain severity ratings relative to placebo” value is “decrease pain severity ratings relative to placebo”.
